Consider one compound from patent US20230158020A1, “Method for treating RNA viral infections, including COVID-19 (SARS-CoV-2)” (priority 2020, published 2023).

SMILES strings stand for the structures. Where two headings read alike, the source gives them in different places.

The subject of experiment [1] is SARS-CoV-2. It is filed as in vivo.
Experiment [2] relates to COVID-19. The following applies: patients with confirmed COVID-19; FVP orally 1600 mg twice a day on day 1, 600 mg twice a day days 2-14, plus interferon-α aerosol 5 million units twice a day; control lopinavir/ritanovir 400 mg/100 mg twice a day; cited from earlier work.

For `NC(=O)c1nc(F)c[nH]c1=O` [FVP, Favipiravir], the virus elimination rate is 44% in experiment [1] (patients with FVP dose <43 mg/kg on day 1) and 79% in experiment [1] (patients with FVP dose ≥43 mg/kg on day 1). For the same compound, the viral clearance in experiment [2] is reported as 4 days.
